How the values were obtained:
cerebral aneurysm model = assay: Inhibitory effect on formation of cerebral aneurysm in cerebral aneurysm model (EvG staining, size of aneurysm); assay type: in vivo, SD rat; details: 5 mL/kg, forced oral, once a day, Day 0 to Day 26
Description: A rat model of cerebral aneurysm was prepared according to the method disclosed on the literature by Hashimoto et al. (Surgical Neurology 1978, Vol. 10, p. 3-8). Namely, 50 mg/kg of pentobarbital was administrated intraperitoneally to a 7-week-old male SD rat, and the left common carotid artery and the left renal artery were ligated by using 10-0 nylon thread under anesthesia (this is referred to as the surgery for inducing cerebral aneurysm). From the day after surgery (Day 1), the rat was reared with being fed a high-salt diet. During a rearing period, the rat was given free access to water. Forced oral administration of 0.03 mg/5 mL or 0.1 mg/5 mL of the suspension of Compound 1 to the cerebral aneurysm model was conducted once a day at a dose of 5 mL/kg from the day after surgery, i.e., 1 day after surgery (Day 1) to 27 days after surgery (Day 27). It should be noted that forced oral administration of the 0.5% MC solution (0 mg/5 mL of the suspension of Compound 1) to the cerebral aneurysm model was conducted once a day at a dose of 5 mL/kg. The group of these rats was defined as a vehicle group. 28 Days after surgery (Day 28), the right olfactory artery/anterior cerebral artery bifurcation containing cerebral aneurysm was extirpated and was fixed with 4% paraformaldehyde, and then the solution was replaced with a 30% sucrose solution, and thereafter, the extirpated bifurcation was frozen to prepare a specimen of a frozen section having a thickness of 5 μm, by similar procedures to the steps 1) and 2) of the method of Reference Example 2. This specimen was subjected to EvG staining and the formation of cerebral aneurysm was confirmed. The size of cerebral aneurysm was measured and evaluation was conducted. The maximum diameter (Maximum) represents the maximum distance between internal elastic lamina disruption sites observed by EvG staining, the height “Height” represents the maximum value of height defined as the length of the perpendicular line drawn from the line connecting the two ends of internal elastic lamina, and the mean diameter “Mean” represents the mean value of the maximum diameter and the height. This evaluation was conducted on all the rats (8 or 9 rats) of each of the groups, and the mean value of each of the groups was calculated. The administration of 0.1 mg/5 mL of a suspension of Compound 2 to the cerebral aneurysm model was started on the day of the surgery (Day 0) at a dose of 5 mL/kg, and forced oral administration was conducted once a day until 26 days after surgery (Day 26). The size of cerebral aneurysm was measured by using the protocol of Example 1. […] The size of cerebral aneurysm was measured by using the protocol of Example 1. […] The size of cerebral aneurysm was measured by using the protocol of Example 1.

[1] = system: Human carotid artery endothelial cells; assay: Inhibitory action of S1P1 receptor antagonist on inhibitory effect of Compound 1 on permeability of endothelial cells; assay type: cell-based; details: antagonist 0.1 nM, 1 nM, 10 nM, or 100 nM with Compound 1 100 nM; FITC-dextran; FIG. 15
Description: Human carotid artery endothelial cells HCtAEC (Cell Applications) were seeded in the upper compartment of Transwell (diameter: 6.5 mm, pore size: 0.4 μm, collagen-Coated: Corning) so that the cell density was 1×10^5 cells/well, and the cells were cultured overnight in MesoEndo Growth Medium (Cell Applications) under a 5% CO2 atmosphere at 37° C. The medium was replaced with Endothelial Cell Serum-Free Defined Medium (Cell Applications), and the cells were further cultured overnight under the CO2 atmosphere at 37° C. Then, Compound 1 was added to the upper compartment and the lower compartment of Transwell so that the final concentration was 0 nM, 0.1 nM, 1 nM, 10 nM, or 100 nM, and the cells were cultured continuously. The well to which Compound 1 was not added was defined as a control. After culturing for 60 minutes, 250 μg/mL of fluorescein isothiocyanate (FITC)-dextran (2,000 kDa: Sigma-Aldrich) was added to the upper compartment of Transwell, and the amount of FITC-dextran which permeated into the lower compartment was determined by measuring the fluorescence intensity of the medium in the lower compartment after 5 minutes, 60 minutes, and 210 minutes. […]
After culturing for 60 minutes, the amount of FITC-dextran which permeated into the lower compartment was determined in a similar manner to Example 6.

## Cl.O=C(O)C1CCN(CC2=Cc3ccc(OCc4ccc(OCC(F)(F)F)c(C(F)(F)F)c4)cc3OC2)CC1 [Compound 2, 1-[(7-{[4-(2,2,2-trifluoroethoxy)-3-(trifluoromethyl)benzyl]oxy}-2H-chromen-3-yl)methyl]piperidine-4-carboxylic acid hydrochloride]
Cerebral aneurysm model; 0.1 mg/5 mL suspension, FIG. 11
  formation of cerebral aneurysm (size): inhibited the formation of cerebral aneurysm

## Cl.NC(CO)(CO)CCc1ccc(Sc2cccc(OCc3ccccc3)c2)cc1Cl [Compound 3, 2-amino-2-[2-[4-[3-(benzyloxy)phenylsulfanyl]-2-chlorophenyl]ethyl]propane-1,3-diol hydrochloride]
Cerebral aneurysm model; 0.01 mg/5 mL suspension, FIG. 12
  formation of cerebral aneurysm (size): inhibited the formation of cerebral aneurysm

## CCc1cc(/C(C)=N/OCc2ccc(C3CCCCC3)c(C(F)(F)F)c2)ccc1CN1CC(C(=O)O)C1 [Compound 4, 1-[4-[N-[4-cyclohexyl-3-(trifluoromethyl)benzyloxy]-1(E)-iminoethyl]-2-ethylbenzyl]azetidine-3-carboxylic acid]
Cerebral aneurysm model; 0.3 mg/5 mL suspension, FIG. 13
  formation of cerebral aneurysm (size): inhibited the formation of cerebral aneurysm

## CCn1c(Oc2cccc(N3CCN(C)CC3)c2)nnc1[C@@H](C)NS(=O)(=O)c1ccc2c(Cl)cccc2c1 [Compound At, 5-chloro-N-[(1R)-1-{4-ethyl-5-[3-(4-methylpiperazin-1-yl)phenoxy]-4H-1,2,4-triazol-3-yl}ethyl]naphthalene-2-sulfonamide]
[1]
  effect on the inhibitory effect of Compound 1 on permeability of endothelial cells: inhibited the inhibitory effect of Compound 1 on permeability of endothelial cells in a concentration-dependent manner

— patent publication US9629834B2, “Medicinal composition for inhibiting formation and/or enlargement of cerebral aneurysm or shrinking same” (KYOTO UNIVERSITY, priority 2013, dated 2017)
